Tests used:
LFA-1 = target: T1, LFA-1 (Mus musculus, UniProt P24063); settings: oral; cited from earlier work
T1 construct: host or cells: mouse, in vivo

CD56+CD8+ cells = assay: flow cytometric conjugate formation assay of CD56+CD8+ cells and HL60 cells; format: cell-based, human; settings: chemicals 10 μM 30 min prior to ICAM-2 10 μg/ml 30 min
Protocol: A) Conjugate formation of CFSE labeled HL60, cells and CD56^+, CD8^+, cells. Conjugate flow cytometric based assay was performed on PBMC treated with indicated chemicals (10, μM, 30, min) prior to treatment with ICAM-2, (10, μg/ml, 30, min). CFSE labeled HL60, cells were incubated at 25:1, E:T ratio for 5, min, and fixed with 1% paraformaldehyde. Cells were then immunolabeled with CD8 and CD56, antibodies, gated for CD8^+, CD56^+, cell populations and percent HL60, fluorescence was made relative to total HL60, cells. B) IL-2, activated PBMC were either treated with ICAM-2, (10 μg/ml, 30, min) or mock-treated (IgG) and stained for active-LFA-1, (mAb24-Alexa633), phospho-p44/42-Ax488, CD8-CY5PE, and CD56-PE.
Target cell lysis was measured by flow cytoemtric based detection of CFSE labeled HL60 cells. HL60 cells were labeled with 1 μg of CFSE (30 min, 37° C.). […] Percent specific lysis was calculated by the following equation: % specific lysis=100-100×(experimental HL60 count/total control HL60 count). HL60 counts were detectable by the CFSE fluorescence. Percent perforin was calculated by the following equation: % perforin=100×[(experimental perforin MFI−isotype mAb MFI)/(total perforin MFI−isotype mAb MFI)]. […] Cell conjugates were determined by flow cytometry as described (Morgan et al., 2001). […]

NK leukemic cell line YT = settings: cited from earlier work
NIH3T3 = assay: staurosporine induced apoptosis in ICAM-2 transduced NIH3T3 (annexin-V binding, BrdU TUNEL); format: cell-based, murine; settings: cell type not stated; data not shown
Protocol: A) Pharmacological inhibitors of PI3K abrogate ICAM-2's anti-apoptotic. ICAM-2, or vector transduced BaF3, cells were treated with staurosporine (1, μM) with (unfilled) or without (filled) the addition of 100, nM wortmannin for 24, hours (left bar graph). Apoptosis was determined by nuclear staining and fluorescence microscopy (left bar graph) and by annexin-V binding assay (right bar graph). The proportion of apoptotic cells in each culture without staurosporine was 8%+/−2. The percentage of apoptotic cells is expressed as the mean (bar)+SD of triplicate cultures. ICAM-2, 1CAM2-AC, or vector transduced NIH3T3, were treated with staurosporine ([…]) in the presence or absence of 10, μM LY294002, for 24, hours (right bar graph). DMSO vehicle served as negative control. The percentage of apoptotic cells is expressed as the mean (bar)+/−SD of triplicate cultures. B) Confocal images of PI3K and AKT localization in ICAM-2, (top) or vector control cells (bottom). C) Confocal images of ezrin and the p85, subunit of PI3K (green) localization in ICAM-2, (top) or vector control cells (bottom).
A) The anti-apoptotic effect of ICAM-2, is both wortmannin and LY294002, sensitive. ICAM-2, or vector transduced BaF3, cells were treated with staurosporine (1, μM) with (unfilled) or without (filled) the addition of 100, nM wortmannin for 24 hours. Apoptosis was determined by nuclear staining and fluorescence microscopy (left bar graph) and by annexin-V binding assay (right bar graph). The proportion of apoptotic cells in each culture without staurosporine was 8%±2. The percentage of apoptotic cells is expressed as the mean (bar)±SD of triplicate cultures. ICAM-2, ICAM2-ΔC, or vector transduced NIH3T3, were treated with staurosporine (1, μM) in the presence or absence of 10, μM LY294002, for 24, hours. DMSO vehicle served as negative control. The percentage of apoptotic cells is expressed as the mean (bar)±SD of triplicate cultures. B) ICAM-2, expressing NIH3T3, cells are sensitive to apoptosis in the presence of PI3K inhibitor LY294002. BrdU TUNEL assay was performed in staurosporine (1, μM) or LY294002, (10, μM) treated ICAM-2, ICAM2-ΔC, and control vector transduced NIH3T3, cells. The percentage of apoptotic cells is expressed as the mean (bar)±SD of triplicate cultures.
Apoptosis was determined either by counting pyknotic nuclei, annexin-V binding by flow cytometry, or TUNEL BrdU staining by flow cytometry as indicated. Apoptosis was induced either by staurosporine (1 μm), treatment with anti-mouse Fas (5 μq/ml Santa Cruz Biotechnology (SCB), […] Fas (5 μg/ml Jo2 Biomed) or anti-human Fas (10 ng/ml CH11 Kamiya Biomedical) as indicated in appropriate experiment, IL-3 withdrawal-(24 hrs) or as indicated. For pyknolic nuclei count, NIH3T3 cells were grown on glass coverslips and assayed for apoptosis. Suspension cells were analyzed by nuclear staining with 25 μM acridine orange/25 μm ethidium bromide or 5 μg/ml Hoechst 33342 (Molecular Probes, Eugene, Oreg.). Apoptosis was identified by the presence of characteristic pyknotic nuclei as described (Jacobson and Raff, 1995). At least 5 individual fields were photographed and counted using a Zeiss axioscope fluorescence microscope. For the survival assay 10^6 NIH3T3 cells were plated in 10 cm dishes and incubated overnight at 37° C. The cells were treated with 1 μM staurosporine for 24 hours. The cells were washed and cultured for 24 hours in complete medium. The cells were trypsinized and viable cells counted following trypan blue staining. Untreated cells were counted at the time of treatment. % survival represents (number of viable cells post-treatment)/(number of viable cells pretreatment). FACS based annexin-V-FITC/PI staining was done as described (PharMingen). TUNEL assay was performed as described by manufacturer of Apoptosis BrdU kit (Promega). […]

Syk = settings: cited from earlier work
Raf and p44/42 MAPK = assay: phospho-raf and phospho-p44/42 immunoblot kinase inhibitor screen after ICAM-2 stimulus; format: cell-based, human; settings: compound 10 μM 30 min, then ICAM-2 10 μg/ml 30 min
Protocol: Serum starved cells were treated with 10, μM of indicated compound 30, minutes prior to being ICAM-2, crosslinked for 30, minutes (10, μg/ml) and assessed for phosphorylated Raf and p44/42, MAPK using phospho specific antibodies in standard immunoblot procedures. Control IgG dissolved in 0.1% DMSO served as negative control. Blots are representative of triplicate experiments. […] Co-immunoprecipitation experiments were performed immunoprecipitating αL and β2, integrin and immunoblotting for the presence of SYK and PYK as a function of a stimulus for 30, minutes as indicated (antibodies used at 10, μg/ml, compounds used at 1, μM and control 19, served as negative control).
A) Phospho-raf and phospho-p44/42, immunoblot inhibition profile by tyrosine kinase inhibitors. […] Cell lysates were immunoblotted for phospho-raf and phospho-p44/42. […] Phospho-specificity was determined by phospho-PykpY402, and phospho-syk (Tyr525/526) antibodies. […] Cells were treated and processed as above. Phospho-specific PKCα/βII, (Thr638) and the following antibodies were used; Pyk2, and Syk were first immunoprecipated, probed with anti-phosphotyrosine antibody (PY20), stripped and subsequently probed with indicated non-phospho specific antibody. Immunoblots are representative of triplicate experiments. […]

Pyk2 = assay: sICAM-2 induced Pyk2 phosphorylation (phospho-tyrosine based ELISA, chemical genetic approach); format: cell-based; settings: phospho-tyrosine based ELISA
Excerpt: E) depicts that LFA-1, induced phosphorylation of Pyk2, and Syk is dependent on PKC. We screened for the inhibition of sICAM-2, induced Pyk2, and Syk phosphorylation by chemical inhibitors to tyrosine kinases using a phospho-tyrosine based ELISA. Pyk2, phosphorylation was abrogated in the presence of PKC inhibitors bisindolymaleimide II (BIM II) and staurosporine (STP), in addition to tyrphostin A9, a specific Pyk2, inhibitor. a Pyk2, phosphorylation was also affected by inhibitors of phospholipase Cg (neomycin), inhibitors of Syk (piceatannol), and PKC inhibitor BIM I. Syk phosphorylation was completely abolished by inhibition of Pyk2, PLCg1, and strongly affected by PKC inhibitors. Thus, both Pyk2, and Syk phosphorylations were dependent on PKC activity, while Syk phosphorylation was additionally dependent on PLCg1, and Pyk2, activity. It was not possible to assess specific PKC isozymes by this method.
A chemical genetic approach was undertaken to determine the hierarchy of PKC, Pyk2, PLCg1, and Syk activities in response to sICAM-2, stimulus by verifying phosphorylation status of each kinase in the presence of respective chemical inhibitors. Inhibition of PKC with BIM II abrogated phosphorylation of Pyk2, PLCg1, and Syk. Inhibition of PLCg1, by neomycin abrogated phosphorylation of Syk, with no inhibition observed for Pyk2. […] Thus, the upstream signaling events from LFA-1, to Raf-1, appear to involve PKC/Pyk2/PLCg1/Syk. […] We are currently pursuing these complexes in a separate study.

T1 sequence (P24063 24-1162): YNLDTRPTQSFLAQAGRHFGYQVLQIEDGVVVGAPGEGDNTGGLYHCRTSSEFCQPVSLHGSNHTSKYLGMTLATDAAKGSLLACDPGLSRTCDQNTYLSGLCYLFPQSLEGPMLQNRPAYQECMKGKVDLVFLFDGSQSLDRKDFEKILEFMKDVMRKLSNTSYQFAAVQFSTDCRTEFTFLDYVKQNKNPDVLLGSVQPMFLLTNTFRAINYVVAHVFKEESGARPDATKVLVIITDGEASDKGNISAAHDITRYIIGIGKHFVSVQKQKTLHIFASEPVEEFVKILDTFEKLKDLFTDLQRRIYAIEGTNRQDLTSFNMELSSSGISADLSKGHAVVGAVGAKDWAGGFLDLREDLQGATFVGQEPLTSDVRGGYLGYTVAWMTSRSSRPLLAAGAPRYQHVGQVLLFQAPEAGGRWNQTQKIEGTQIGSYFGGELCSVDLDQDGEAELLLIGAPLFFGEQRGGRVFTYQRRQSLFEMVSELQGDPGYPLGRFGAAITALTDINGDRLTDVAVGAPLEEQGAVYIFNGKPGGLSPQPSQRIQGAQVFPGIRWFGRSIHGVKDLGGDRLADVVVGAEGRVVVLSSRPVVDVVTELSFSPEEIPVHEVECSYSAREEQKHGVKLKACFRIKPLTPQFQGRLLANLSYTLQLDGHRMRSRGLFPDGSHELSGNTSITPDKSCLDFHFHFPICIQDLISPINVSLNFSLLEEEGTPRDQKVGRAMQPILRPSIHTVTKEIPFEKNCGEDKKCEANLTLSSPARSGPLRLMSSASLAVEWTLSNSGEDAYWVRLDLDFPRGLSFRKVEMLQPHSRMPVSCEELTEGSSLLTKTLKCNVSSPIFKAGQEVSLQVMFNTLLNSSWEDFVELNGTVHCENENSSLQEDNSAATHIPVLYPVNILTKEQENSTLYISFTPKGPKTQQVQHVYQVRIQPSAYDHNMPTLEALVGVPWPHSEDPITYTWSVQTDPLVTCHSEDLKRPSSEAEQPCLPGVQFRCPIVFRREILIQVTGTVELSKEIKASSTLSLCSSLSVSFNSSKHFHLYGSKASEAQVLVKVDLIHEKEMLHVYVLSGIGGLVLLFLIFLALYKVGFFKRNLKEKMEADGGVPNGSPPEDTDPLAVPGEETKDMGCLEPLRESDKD
T1 sequence (P11835 24-771 partner): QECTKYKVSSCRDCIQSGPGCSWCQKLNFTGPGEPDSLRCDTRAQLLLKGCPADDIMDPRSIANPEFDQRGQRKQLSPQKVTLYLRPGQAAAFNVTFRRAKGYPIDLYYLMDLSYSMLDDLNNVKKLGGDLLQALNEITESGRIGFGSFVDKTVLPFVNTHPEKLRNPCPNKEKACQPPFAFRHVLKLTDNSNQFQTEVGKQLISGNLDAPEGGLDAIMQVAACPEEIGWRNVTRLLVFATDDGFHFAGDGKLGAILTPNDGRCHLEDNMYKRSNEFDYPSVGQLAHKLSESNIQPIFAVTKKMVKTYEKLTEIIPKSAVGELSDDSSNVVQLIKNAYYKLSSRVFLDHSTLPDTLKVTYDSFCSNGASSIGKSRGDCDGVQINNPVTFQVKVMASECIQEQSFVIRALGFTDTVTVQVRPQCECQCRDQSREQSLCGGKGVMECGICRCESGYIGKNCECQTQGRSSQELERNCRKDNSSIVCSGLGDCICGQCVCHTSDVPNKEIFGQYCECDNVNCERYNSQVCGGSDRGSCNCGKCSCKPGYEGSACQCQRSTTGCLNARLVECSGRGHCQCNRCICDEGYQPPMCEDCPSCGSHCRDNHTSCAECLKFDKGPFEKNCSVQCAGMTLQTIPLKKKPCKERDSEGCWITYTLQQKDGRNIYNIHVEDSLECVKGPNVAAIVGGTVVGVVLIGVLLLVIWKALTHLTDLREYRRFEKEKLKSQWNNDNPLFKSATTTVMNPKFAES

SMILES: CC[C@H](C)C(=O)O[C@H]1C[C@@H](C)C=C2C=C[C@H](C)[C@H](CC[C@H]3C[C@@H](O)CC(=O)N3Cc3ccc4c(CO)c(OC)ccc4c3)[C@H]21 [LFA703]
- inflammatory response (LFA-1): suppressed the inflammatory response

SMILES: COc1cccc(-c2cc(=O)c3ccccc3o2)c1N [PD98059]
- effector-target (E:T) conjugate formation (CD56+CD8+ cells): did not
- perforin redistribution (NK leukemic cell line YT): inhibits perforin redistribution to the site of effector-target cell contact
- effect on ICAM-2 anti-apoptotic effect, other kinase inhibitors (NIH3T3): not abrogated

SMILES: Oc1cc(O)cc(/C=C/c2ccc(O)c(O)c2)c1 [piceatannol]
- natural cytotoxicity (Syk): inhibits natural cytotoxicity

SMILES: CC(C)(C)c1cc(C=C(C#N)C#N)cc(C(C)(C)C)c1O [tyrphostin A9]
- effect on ICAM-2 induced activation of Raf and p44/42 MAPK (Raf and p44/42 MAPK): abrogated
- sICAM-2 induced Pyk2 phosphorylation (Pyk2): abrogated

Reference: patent US8962263B2, “Methods and compositions for detecting the activation state of multiple proteins in single cells” (The Board of Trustees of the Leland Stanford Junior …, priority 2001, dated 2015)
